Test results as given in article PMC10935199, “Rosmarinic Acid Present in Lepechinia floribunda and Lepechinia meyenii as a Potent Inhibitor of the Adenylyl Cyclase gNC1 from Giardia lamblia” (Plants, 2024).

Target: T1, adenylyl cyclase gNC1 (Giardia nucleotidyl cyclase 1)
T1 construct: catalytic domain of gNC1 (construct gNC1-301)
Assay: adenylyl cyclase assay on enriched gNC1-301, cAMP by radiobinding protein assay; ATP kinetics
Assay type: biochemical, Giardia intestinalis

## O=C(/C=C/c1ccc(O)c(O)c1)O[C@H](Cc1ccc(O)c(O)c1)C(=O)O [compound 3, rosmarinic acid]
  IC50: 10.1 ± 1.3 µM
